Test system: fresh-frozen human brain sections
Assay: Autoradiography on fresh-frozen brain tissue sections
Assay type: binding
Conditions: for NSB: 5 µM GMC044; for Specific binding relative to displaceable binding in controls: on average
Method: Selections of frozen human sections (described in Table 2 and Table 3) were used for binding autoradiography. Sections were first pre-incubated for 20 min in binding buffer [50 mM Tris-HCl (pH 7.4), 120 mM NaCl, 5 mM KCl, 2 mM CaCl2, 1 mM MgCl2, and 0.1% BSA] and then incubated with [^3H]GMC-058 (specific activity 22 Ci/mmol); [^3H]GMC-073 (specific activity 23.4 Ci/mmol); or […] in binding buffer for 180 min at RT. In the pilot autoradiography experiment (Figure A1). [^3H]GMC-058 was tested at 25 and 50 nM, while [^3H]GMC-073 and [^3H]GMC-098 were each tested at 10 and 20 nM. For all other autoradiography in fresh-frozen tissue sections, 25 nM [^3H]GMC-058 was used. To determine NSB, adjacent brain sections were incubated with [^3H]-tracer mixed with 5 μM of unlabeled GMC-044. The binding reaction was stopped with two 10 min washes in washing buffer [50 mM Tris-HCl (pH 7.4) at 4 °C] and a brief dip in cold distilled water. Slides were allowed to air-dry before being placed under storage phosphor screens (Fujifilm Plate BAS-TR2025, Fujifilm, Tokyo, Japan) in imaging cassettes for 90 h together with ART0123C and ART0123B tritium standards on glass slides (American Radiolabeled Chemicals Inc., St. Louis, MO, USA). Storage phosphor screens were scanned using an Amersham Typhoon FLA-9500 phosphor imaging scanner (Cytiva, Marlborough, MA, USA), and the resulting images were analyzed using Multi Gauge 3.2 phosphor imager software (Fujifilm, Tokyo, Japan) for ROI delimitation, density calibration, and quantification. Quantitative binding data from duplicates of the total, and NSB were plotted and analyzed using graphPad Prism v10 (GraphPad Software, Boston, MA, USA). Specific binding was determined by subtracting the non-specific signal from the total signal. The toluidine blue staining of adjacent sections was used to obtain anatomical references for white- and gray-matter ROI selection. Care was taken not to include artifact signals in the ROIs analyzed. These artifacts were identified as randomly placed punctate signals appearing in both total and NSB images, and they often coincided with small folds or tears in the tissue sections.

[1] = 25 nM radioligand, gray matter of cingulate cortex, control C03
[2] = 25 nM, PD1, cingulate gyrus, GM
[3] = 25 nM, PD1, cingulate gyrus, WM
[4] = 25 nM, PD2, cingulate gyrus, GM
[5] = 25 nM, PD2, cingulate gyrus, WM
[6] = 25 nM, PD3, cingulate gyrus, GM
[7] = 25 nM, PD3, cingulate gyrus, WM
[8] = 25 nM, non-dementia control C01, cingulate gyrus, GM
[9] = 25 nM, non-dementia control C01, cingulate gyrus, WM
[10] = 25 nM, non-dementia control C02, cingulate gyrus, GM
[11] = 25 nM, non-dementia control C02, cingulate gyrus, WM
[12] = 25 nM, non-dementia control C03, cingulate gyrus, GM
[13] = 25 nM, non-dementia control C03, cingulate gyrus, WM
[14] = 50 nM radioligand, gray matter of cingulate cortex, control C03

- Total binding [1]: 57.6 ± 1.8 fmol/mg tissue equivalent
- Specific Binding (25 nM, CBD1 block 1, SFG, GM): 50 fmol/mg tissue equivalent
- Specific Binding (25 nM, CBD1 block 1, SFG, WM): 29 fmol/mg tissue equivalent
- Specific Binding (25 nM, CBD1 block 2, SFG, GM): 32 fmol/mg tissue equivalent
- Specific Binding (25 nM, CBD1 block 2, SFG, WM): 130 fmol/mg tissue equivalent
- Specific binding relative to displaceable binding in controls (25 nM, CBD, gray matter of superior frontal gyrus): three-fold
- Total binding (25 nM, MSA1, cerebellum, GM): 46.9 fmol/mg tissue equivalent
- Total binding (25 nM, MSA1, cerebellum, WM): 50.1 fmol/mg tissue equivalent
- Total binding (25 nM, MSA2, cerebellum, GM): 30.3 fmol/mg tissue equivalent
- Total binding (25 nM, MSA2, cerebellum, WM): 52.5 fmol/mg tissue equivalent
- Specific Binding (25 nM, MSA3, cerebellum, GM): 26 fmol/mg tissue equivalent
- Specific Binding (25 nM, MSA3, cerebellum, WM): 21 fmol/mg tissue equivalent
- Specific Binding (25 nM, MSA4, cerebellum, GM): 23 fmol/mg tissue equivalent
- Specific Binding (25 nM, MSA4, cerebellum, WM): 49 fmol/mg tissue equivalent
- Specific Binding (25 nM, NDE C03, cingulate cortex, GM): 15 fmol/mg tissue equivalent
- Specific Binding (25 nM, NDE C03, cingulate cortex, WM): −2 fmol/mg tissue equivalent
- Specific Binding (25 nM, NDE C04, caudate, GM): 8 fmol/mg tissue equivalent
- Specific Binding (25 nM, NDE C04, caudate, WM): −1 fmol/mg tissue equivalent
- Specific Binding (25 nM, NDE C04, globus pallidus, GM): 10 fmol/mg tissue equivalent
- Specific Binding (25 nM, NDE C04, globus pallidus, WM): 0 fmol/mg tissue equivalent
- Specific Binding (25 nM, NDE Co4, putamen, GM): 12 fmol/mg tissue equivalent
- Specific Binding (25 nM, NDE Co4, putamen, WM): 4 fmol/mg tissue equivalent
- Total binding [2]: 55.6 fmol/mg tissue equivalent
- Total binding [3]: 52.5 fmol/mg tissue equivalent
- Total binding [4]: 16.2 fmol/mg tissue equivalent
- Total binding [5]: 55.4 fmol/mg tissue equivalent
- Total binding [6]: 59.3 fmol/mg tissue equivalent
- Total binding [7]: 55.4 fmol/mg tissue equivalent
- Specific Binding (25 nM, PSP1, GP, GM): 102 fmol/mg tissue equivalent
- Specific Binding (25 nM, PSP1, GP, WM): 32 fmol/mg tissue equivalent
- Specific Binding (25 nM, PSP2, GP, GM): 118 fmol/mg tissue equivalent
- Specific Binding (25 nM, PSP2, GP, WM): −1 fmol/mg tissue equivalent
- Specific binding relative to displaceable binding in controls (25 nM, PSP, gray matter of globus pallidus): ten-fold
- Total binding [8]: 56.8 fmol/mg tissue equivalent
- Total binding [9]: 56.9 fmol/mg tissue equivalent
- Total binding [10]: 44.3 fmol/mg tissue equivalent
- Total binding [11]: 45.3 fmol/mg tissue equivalent
- Total binding [12]: 45.3 fmol/mg tissue equivalent
- Total binding [13]: 48.7 fmol/mg tissue equivalent
- Specific binding relative to average displaceable binding in gray matter of controls (25 nM, two MSA cases, cerebellar gray matter): two-fold higher
- Average specific binding (25 nM, white matter of MSA and CBD cases): 35 to 80 fmol/mg
- Specific Binding (25 nM, white matter of control cases): No specific binding
- Total binding [14]: 114.1 ± 9.3 fmol/mg tissue equivalent
- Binding displaced by GMC-044 (5 µM GMC-044, control cingulate cortex tissue): ~ 65%
- Binding in control tissue (cingulate cortex of healthy controls): negligible binding
SMILES: [3H]c1cc(N2CCN(c3ccc(NC(=O)C(C)(C)C)cc3)CC2)ccc1OC [[^3H]GMC-058, N-(4-(4-(4-methoxy-[3-3H]phenyl)piperazin-1-yl)phenyl)pivalamide]
- NSB [1]: 37.6 ± 3.8 fmol/mg tissue equivalent
- Total Minus NSB [1]: 20 fmol/mg
- NSB (5 µM GMC044) (25 nM, MSA1, cerebellum, GM): 27.4 fmol/mg tissue equivalent
- Total Minus NSB (25 nM, MSA1, cerebellum, GM): 19.5 fmol/mg tissue equivalent
- NSB (5 µM GMC044) (25 nM, MSA1, cerebellum, WM): 33.3 fmol/mg tissue equivalent
- Total Minus NSB (25 nM, MSA1, cerebellum, WM): 16.8 fmol/mg tissue equivalent
- NSB (5 µM GMC044) (25 nM, MSA2, cerebellum, GM): 19.9 fmol/mg tissue equivalent
- Total Minus NSB (25 nM, MSA2, cerebellum, GM): 10.3 fmol/mg tissue equivalent
- NSB (5 µM GMC044) (25 nM, MSA2, cerebellum, WM): 27.7 fmol/mg tissue equivalent
- Total Minus NSB (25 nM, MSA2, cerebellum, WM): 24.8 fmol/mg tissue equivalent
- NSB (5 µM GMC044) [2]: 42.3 fmol/mg tissue equivalent
- Total Minus NSB [2]: 13.3 fmol/mg tissue equivalent
- NSB (5 µM GMC044) [3]: 50.6 fmol/mg tissue equivalent
- Total Minus NSB [3]: 1.9 fmol/mg tissue equivalent
- NSB (5 µM GMC044) [4]: 17.1 fmol/mg tissue equivalent
- Total Minus NSB [4]: −0.9 fmol/mg tissue equivalent
- NSB (5 µM GMC044) [5]: 53.7 fmol/mg tissue equivalent
- Total Minus NSB [5]: 1.6 fmol/mg tissue equivalent
- NSB (5 µM GMC044) [6]: 42.0 fmol/mg tissue equivalent
- Total Minus NSB [6]: 17.2 fmol/mg tissue equivalent
- NSB (5 µM GMC044) [7]: 47.1 fmol/mg tissue equivalent
- Total Minus NSB [7]: 8.3 fmol/mg tissue equivalent
- Specific binding versus controls (25 nM, cingulate cortex of controls and PD patients, cerebellum of MSA patients): did not show clear evidence of specific binding higher than the displaceable (off-target) binding in controls
- NSB (5 µM GMC044) [8]: 60.3 fmol/mg tissue equivalent
- Total Minus NSB [8]: −3.5 fmol/mg tissue equivalent
- NSB (5 µM GMC044) [9]: 59.8 fmol/mg tissue equivalent
- Total Minus NSB [9]: −2.9 fmol/mg tissue equivalent
- NSB (5 µM GMC044) [10]: 24.6 fmol/mg tissue equivalent
- Total Minus NSB [10]: 19.8 fmol/mg tissue equivalent
- NSB (5 µM GMC044) [11]: 31.8 fmol/mg tissue equivalent
- Total Minus NSB [11]: 13.6 fmol/mg tissue equivalent
- NSB (5 µM GMC044) [12]: 28.6 fmol/mg tissue equivalent
- Total Minus NSB [12]: 16.7 fmol/mg tissue equivalent
- NSB (5 µM GMC044) [13]: 39.0 fmol/mg tissue equivalent
- Total Minus NSB [13]: 9.7 fmol/mg tissue equivalent
- NSB [14]: 74.6 ± 4.1 fmol/mg tissue equivalent
- Total Minus NSB [14]: 40 fmol/mg

Reference: article PMC12190736, “Development and In Vitro Characterization of [^3H]GMC-058 as Radioligand for Imaging Parkinsonian-Related Proteinopathies” (Cells, 2025)
